Source: ChEMBL document CHEMBL3046494, “Identification of liver X receptor and farnesoid X receptor dual agonists from Tithonia diversifolia” (Med Chem Res, 2013)
Calls of active or inactive are those of the source. No cut-off for these calls is given here.

Experiments:
Format in all cases: cell-based
[1] = system: HepG2; experiment: Cytotoxicity against Homo sapiens (human) HepG2 cells after 48 hr; conditions: hepg2, 48 h
[2] = target: T1, Bile acid receptor (Homo sapiens) (UniProt Q96RI1); experiment: Agonist activity at Homo sapiens (human) FXR ligand binding domain expressed in HepG2 cells assessed as transactivation of GAL4 gene expression at 1 uM after 48 hr by luciferase reporter gene assay relative to control
T1 sequence (whole entry): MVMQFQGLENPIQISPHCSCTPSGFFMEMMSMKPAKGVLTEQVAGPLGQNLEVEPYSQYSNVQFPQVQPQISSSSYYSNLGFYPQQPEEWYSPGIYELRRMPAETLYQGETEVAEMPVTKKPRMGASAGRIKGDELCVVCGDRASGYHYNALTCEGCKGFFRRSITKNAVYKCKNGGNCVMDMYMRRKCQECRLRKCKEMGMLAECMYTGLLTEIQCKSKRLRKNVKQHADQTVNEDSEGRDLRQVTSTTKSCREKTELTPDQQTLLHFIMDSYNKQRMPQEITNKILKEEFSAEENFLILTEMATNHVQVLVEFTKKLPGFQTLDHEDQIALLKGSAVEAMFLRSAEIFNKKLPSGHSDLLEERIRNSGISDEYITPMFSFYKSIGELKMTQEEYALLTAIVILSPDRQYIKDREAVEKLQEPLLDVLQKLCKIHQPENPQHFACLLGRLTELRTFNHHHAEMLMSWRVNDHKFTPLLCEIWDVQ

[3] = target: T2, Oxysterols receptor LXR-alpha (Homo sapiens) (UniProt Q13133); experiment: Agonist activity at Homo sapiens (human) LXRalpha expressed in HepG2 cells assessed as transactivation of ABCA1 gene expression after 48 hr by luciferase reporter gene assay
T2 sequence (whole entry): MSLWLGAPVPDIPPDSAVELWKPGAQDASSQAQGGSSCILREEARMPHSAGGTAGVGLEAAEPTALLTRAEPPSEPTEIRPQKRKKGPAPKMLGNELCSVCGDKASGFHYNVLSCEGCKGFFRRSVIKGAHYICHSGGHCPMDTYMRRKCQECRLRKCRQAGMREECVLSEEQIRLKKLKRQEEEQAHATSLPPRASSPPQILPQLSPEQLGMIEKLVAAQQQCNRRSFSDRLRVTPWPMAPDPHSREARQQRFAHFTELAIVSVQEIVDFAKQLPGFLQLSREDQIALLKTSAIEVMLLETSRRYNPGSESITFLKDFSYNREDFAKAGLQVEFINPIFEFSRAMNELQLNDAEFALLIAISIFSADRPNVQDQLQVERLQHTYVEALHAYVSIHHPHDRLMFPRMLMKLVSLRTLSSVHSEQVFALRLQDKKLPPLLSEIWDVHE

[4] = target: T3, Oxysterols receptor LXR-beta (Homo sapiens) (UniProt P55055); experiment: Agonist activity at Homo sapiens (human) LXRbeta expressed in HepG2 cells assessed as transactivation of ABCA1 gene expression at 1 uM after 48 hr by luciferase reporter gene assay relative to control
T3 sequence (whole entry): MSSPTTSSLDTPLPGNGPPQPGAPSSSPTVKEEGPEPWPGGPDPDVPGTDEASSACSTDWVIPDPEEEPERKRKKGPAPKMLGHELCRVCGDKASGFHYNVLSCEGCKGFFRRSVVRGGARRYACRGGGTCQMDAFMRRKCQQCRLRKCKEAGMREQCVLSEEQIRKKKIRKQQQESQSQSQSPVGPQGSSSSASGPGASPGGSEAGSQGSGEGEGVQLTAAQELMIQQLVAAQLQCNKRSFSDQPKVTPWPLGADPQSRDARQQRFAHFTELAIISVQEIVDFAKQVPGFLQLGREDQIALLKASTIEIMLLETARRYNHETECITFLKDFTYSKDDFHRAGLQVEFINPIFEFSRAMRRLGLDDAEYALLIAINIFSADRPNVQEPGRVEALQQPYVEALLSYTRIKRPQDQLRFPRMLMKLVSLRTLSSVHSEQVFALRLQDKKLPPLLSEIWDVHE

[5] = target: T2, Oxysterols receptor LXR-alpha (Homo sapiens); experiment: Agonist activity at Homo sapiens (human) LXRalpha expressed in HepG2 cells assessed as transactivation of ABCA1 gene expression at 10 uM after 48 hr by luciferase reporter gene assay relative to control
[6] = target: T2, Oxysterols receptor LXR-alpha (Homo sapiens); experiment: Agonist activity at Homo sapiens (human) LXRalpha expressed in HepG2 cells assessed as transactivation of SREBP1c gene expression at 10 uM after 48 hr by luciferase reporter gene assay relative to control
[7] = target: T2, Oxysterols receptor LXR-alpha (Homo sapiens); experiment: Agonist activity at Homo sapiens (human) LXRalpha expressed in HepG2 cells assessed as transactivation of SREBP1c gene expression at 1 uM after 48 hr by luciferase reporter gene assay relative to control
[8] = target: T2, Oxysterols receptor LXR-alpha (Homo sapiens); experiment: Agonist activity at Homo sapiens (human) LXRalpha expressed in HepG2 cells assessed as transrepression of PEPCK gene expression after 48 hr by luciferase reporter gene assay
[9] = target: T1, Bile acid receptor (Homo sapiens); experiment: Agonist activity at Homo sapiens (human) FXR ligand binding domain expressed in HepG2 cells assessed as transactivation of SHP gene expression at 100 nM after 48 hr by luciferase reporter gene assay relative to control
[10] = target: T1, Bile acid receptor (Homo sapiens); experiment: Agonist activity at Homo sapiens (human) FXR ligand binding domain expressed in HepG2 cells assessed as transactivation of SHP gene expression at 10 uM after 48 hr by luciferase reporter gene assay relative to control
[11] = target: T2, Oxysterols receptor LXR-alpha (Homo sapiens); experiment: Agonist activity at Homo sapiens (human) LXRalpha expressed in HepG2 cells assessed as decrease in PEPCK gene transactivation at 10 uM after 48 hr by luciferase reporter gene assay relative to control; design: scale not given: the % may be the effect or the level left
[12] = target: T3, Oxysterols receptor LXR-beta (Homo sapiens); experiment: Agonist activity at Homo sapiens (human) LXRbeta expressed in HepG2 cells assessed as transactivation of ABCA1 gene expression at 10 uM after 48 hr by luciferase reporter gene assay relative to control
[13] = target: T3, Oxysterols receptor LXR-beta (Homo sapiens); experiment: Agonist activity at Homo sapiens (human) LXRbeta expressed in HepG2 cells assessed as transactivation of ABCA1 gene expression after 48 hr by luciferase reporter gene assay
[14] = target: T2, Oxysterols receptor LXR-alpha (Homo sapiens); experiment: Agonist activity at Homo sapiens (human) LXRalpha expressed in HepG2 cells assessed as transactivation of SREBP1c gene expression after 48 hr by luciferase reporter gene assay
[15] = target: T2, Oxysterols receptor LXR-alpha (Homo sapiens); experiment: Agonist activity at Homo sapiens (human) LXRalpha expressed in HepG2 cells assessed as transactivation of CYP7A1 gene expression at 10 uM after 48 hr by luciferase reporter gene assay relative to vehicle-treated control
[16] = target: T1, Bile acid receptor (Homo sapiens); experiment: Agonist activity at Homo sapiens (human) FXR ligand binding domain expressed in HepG2 cells assessed as transactivation of GAL4 gene expression at 100 nM after 48 hr by luciferase reporter gene assay relative to control
[17] = target: T2, Oxysterols receptor LXR-alpha (Homo sapiens); experiment: Agonist activity at Homo sapiens (human) LXRalpha expressed in HepG2 cells assessed as PEPCK gene expression at 100 nM after 48 hr by luciferase reporter gene assay relative to control

Row | fold change (FC) [2] | Activity [3] | fold change (FC) [4] | fold change (FC) [5] | fold change (FC) [6] | fold change (FC) [7] | Activity [8] | Activity [9] | fold change (FC) [10] | Activity [11] [%] | fold change (FC) [12] | Activity [13] | Activity [14] | fold change (FC) [15] | Activity [16] | fold change (FC) [17] | Activity [17] | Structure (SMILES) | Activity [1]
1 |  |  |  |  |  |  |  |  |  |  |  |  |  |  |  |  |  | C=C1C(=O)O[C@@H]2/C=C(/C)C(=O)/C=C/[C@](C)(O)C[C@@H](OC(=O)C(C)C)[C@@H]12 [TAGITININ C] | Toxic
2 | 1.6 | Dose-dependent effect | 1.5 | 1.7 | 4.52 | 2.3 | Dose-dependent effect | inactive | 2.41 | 46 | 2.2 | Dose-dependent effect | Dose-dependent effect | 2 | inactive | 0.94 |  | C=C1C(=O)O[C@@H]2C[C@H](C)[C@@]3(O)CC[C@@](C)(C[C@@H](OC(=O)C(C)C)[C@@H]12)O3 [TIROTUNDIN] | Non-toxic
3 | 1.6 | Dose-dependent effect | 1.5 | 1.9 | 3.42 | 2.26 | Dose-dependent effect | inactive | 2.3 | 58 | 1.5 | Dose-dependent effect | Dose-dependent effect | 2 | inactive |  | inactive | C=C1C(=O)O[C@@H]2C[C@H](C)[C@@]3(O)C[C@H](O)[C@@](C)(C[C@@H](OC(=O)C(C)C)[C@@H]12)O3 [TAGITININ A] | Non-toxic
